Target: Thymidylate synthase (Escherichia coli (strain K12), UniProt P0A884)
Assay: Thymidylate Synthase (TS) Assay
Procedure: TS was assayed spectrophotometrically in the reaction buffer solution containing (6R, 6S)-5, 10-CH2H4folate. The reaction was initiated by the addition of an amount of enzyme yielding a change in absorbance at 340 nm of 0.016/min in the absence of inhibitor. Ki values were obtained from the linear least-squares fit of the residual activity as a function of inhibitor concentration, using suitable equations for competitive inhibition.

Chain of Thymidylate synthase (P0A884 whole entry): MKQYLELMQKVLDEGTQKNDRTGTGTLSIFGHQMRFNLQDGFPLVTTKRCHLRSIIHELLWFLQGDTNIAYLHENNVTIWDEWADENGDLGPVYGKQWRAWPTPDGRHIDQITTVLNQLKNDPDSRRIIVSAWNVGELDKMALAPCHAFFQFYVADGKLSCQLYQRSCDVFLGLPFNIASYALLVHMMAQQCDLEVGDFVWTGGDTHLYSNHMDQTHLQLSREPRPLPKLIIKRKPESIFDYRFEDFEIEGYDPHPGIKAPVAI

Ki: > 11 mM
SMILES: O=C1OC(c2cc(Br)c(O)c(Br)c2)(c2cc(Br)c(O)c(Br)c2)c2cccc3cccc1c23 [4,4-bis(3,5-dibromo-4-hydroxyphenyl)-3-oxatricyclo[7.3.1.0^{5,13}]trideca-1(12),5,7,9(13),10-pentaen-2-one]

Reference: BindingDB's records for doi:10.1021/jm051187d (Unimore, 2006)
